Legend:
A549 cells = assay: Inhibition of cell growth in tumor cells (MTT assay); assay type: cell-based; details: Homo sapiens, 72 h compound exposure
Experimental: Inhibition of cell growth by compounds was measured using MTT assay (Mosmann, T., Journal of Immunological Methods, 1983, 65, 55-63). Tumor cell lines were purchased from ATCC (American Type Culture Collection, Manassas, Va.). All cell lines were maintained in RPMI 1640 (Hyclone) supplemented with 10% fetal bovine serum (FBS, Hyclone), glutamine (2 mM, Hyclone), and antibiotics (penicillin 100 U/mL and streptomycin 50 μg/mL) at 37° C. in a humidified atmosphere of 5% CO2 in air. Taxol (positive control, Sigma) and compounds were dissolved in DMSO (Sigma), and the final concentration of DMSO in the medium was 1%. Tumor cells were plated in 96-well plates at densities from 4000 cells/well of a 96-well plate and allowed to adhere/grow for 24 h. They were then treated with various concentrations of drug for 72 h. 3-(4,5-Dimethylthiazol-2-yl)-2,5-diphenyltetrazolium bromide (MTT, Sigma) was used to determine the number of viable cells at the time of compound addition and the number of cells remaining after 72 h compound exposure. The number of cells remaining after 72 h was compared to the number of viable cells at the time of compound addition by measuring the absorbance at 570 nm, allowing for the calculation of growth inhibition.
All concentrations of compounds were tested in triplicate and controls were averaged over 4 wells. IC50 was calculated by plotting the concentration of compound vs the percentage of inhibition in treated wells using GraphPad Prism 5.

nitric oxide production = details: Jin et al., J Nat Prod 65: 89 (2002); read-out: IC50, inhibition of nitric oxide production; cited from earlier work

CC1=C(O)C(=O)C=C2C1=CC=C1[C@@]2(C)CC[C@@]2(C)[C@@H]3C[C@](C)(CN(C)C)CC[C@]3(C)CC[C@]12C [(6bS,8aS,11R,12aR,12bS,14aR)-11-((dimethylamino)methyl)-3-hydroxy-4,6b,8a,11,12b,14a-hexamethyl-7,8,8a,9,10,11,12,12a,12b,13,14,14a-dodecahydropicen-2(6bH)-one]
IC50 (A549 cells): 285 nM

CC1=C(O)C(=O)C=C2C1=CC=C1[C@@]2(C)CC[C@@]2(C)[C@@H]3C[C@](C)(CNC(=O)N4CCN(C)CC4)CC[C@]3(C)CC[C@]12C [N-(((2R,4aS,6aS,12bR,14aS,14bR)-10-hydroxy-2,4-a,6a,9,12b,14a-hexamethyl-11-oxo-1,2,3,4,4a,5,6,6a,11,12b,13,14,14a,14b-tetradecahydropicen-2-yl)methyl)-4-methylpiperazine-1-carboxamide]
IC50 (A549 cells): 246 nM

CC1=C(O)C(=O)C=C2C1=CC=C1[C@@]2(C)CC[C@@]2(C)[C@@H]3C[C@](C)(CNC(N)=O)CC[C@]3(C)CC[C@]12C [1-(((2R,4aS,6aS,12bR,14aS,14bR)-10-hydroxy-2,4-a,6a,9,12b,14a-hexamethyl-11-oxo-1,2,3,4,4a, 5,6,6a,11,12b,13,14,14a,14b-tetradecahydropicen-2-yl)methyl)urea]
IC50 (A549 cells): 737 nM

COC(=O)OC[C@]1(C)CC[C@]2(C)CC[C@]3(C)C4=CC=C5C(=CC(=O)C(O)=C5C)[C@]4(C)CC[C@@]3(C)[C@@H]2C1 [((2R,4aS,6aS,12bR,14aS,14bR)-10-hydroxy-2,4-a,6a,9,12b,14a-hexamethyl-11-oxo-1,2,3,4,4a,5,6,6a,11,12b,13,14,14a,14b-tetradecahydropicen-2-yl)methyl methyl carbonate]
IC50 (A549 cells): 393 nM

CC1=C(O)C(=O)C=C2C1=CC=C1[C@@]2(C)CC[C@@]2(C)[C@@H]3C[C@](C)(CN)CC[C@]3(C)CC[C@]12C [(6bS,8aS,11R,12aR,12bS,14aR)-11-(aminomethyl)-3-hydroxy-4,6b,8a,11,12b,14a-hexamethyl-7,8,8a,9,10,11,12,12a,12b,13,14,14a-dodecahydropicen-2(6bH)-one]
IC50 (A549 cells): 841 nM

CC1=C(O)C(=O)C=C2C1=CC=C1[C@@]2(C)CC[C@@]2(C)[C@@H]3C[C@](C)(CN4CCCC4)CC[C@]3(C)CC[C@]12C [(6bS,8aS,11R,12aR,12bS,14aR)-3-hydroxy-4,6b,8a,11,12b,14a-hexamethyl-11-(pyrrolidin-1-ylmethyl)-7,8,8a,9,10,11,12,12a,12b,13,14,14a-dodecahydropicen-2(6bH)-one]
IC50 (A549 cells): 498 nM

CC1=C(O)C(=O)C=C2C1=CC=C1[C@@]2(C)CC[C@@]2(C)[C@@H]3C[C@](C)(CNC(=O)N4CCOCC4)CC[C@]3(C)CC[C@]12C [N-(((2R,4aS,6aS,12bR,14aS,14bR)-10-hydroxy-2,4-a,6a,9,12b,14a-hexamethyl-11-oxo-1,2,3,4,4a,5,6,6a,11,12b,13,14,14a,14b-tetradecahydropicen-2-yl)methyl)morpholine-4-carboxamide]
IC50 (A549 cells): 358 nM

N=C(N)NN [aminoguanidine]
IC50 (nitric oxide production): 16000 nM

CC1=C(O)C(=O)C=C2C1=CC=C1[C@@]2(C)CC[C@@]2(C)[C@@H]3C[C@](C)(CN4CCOCC4)CC[C@]3(C)CC[C@]12C [(6bS,8aS,11R,12aR,12bS,14aR)-3-hydroxy-4,6b,8a,11,12b,14a-hexamethyl-11-(morpholinomethyl)-7,8,8a,9,10,11,12,12a,12b,13,14,14a-dodecahydropicen-2(6bH)-one]
IC50 (A549 cells): 523 nM

CC1=C(O)C(=O)C=C2C1=CC=C1[C@@]2(C)CC[C@@]2(C)[C@@H]3C[C@](C)(CNC(=O)CN(C)C)CC[C@]3(C)CC[C@]12C [2-(dimethylamino)-N-(((2R,4aS,6aS,12bR,14aS,14bR)-10-hydroxy-2,4a,6a,9,12b,14a-hexamethyl-11-oxo-1,2,3,4,4a,5,6,6a,11,12b,13,14,14a,14b-tetradecahydropicen-2-yl)methyl)acetamide]
IC50 (A549 cells): 159 nM

CC1=C(O)C(=O)C=C2C1=CC=C1[C@@]2(C)CC[C@@]2(C)[C@@H]3C[C@](C)(CO)CC[C@]3(C)CC[C@]12C [(6bS,8aS,11R,12aR,12bS,14aR)-3-hydroxy-11-(hydroxymethyl)-4,6b,8a,11,12b,14a-hexamethyl-7,8,8a,9,10,11,12,12a,12b,13,14,14a-dodecahydropicen-2(6bH)-one]
IC50 (A549 cells): 624 nM

Reference: patent US8691977B2, “Certain chemical entities, compositions, and methods” (Neupharma, Inc., priority 2010, dated 2014)
